Test results as given in patent publication US11591634B1, “Forecasting bacterial survival-success and adaptive evolution through multiomics stress-response mapping and machine learning” (priority 2019, dated 2023).
Values after ≈ are worked out from the molar mass of the structure shown.

What was measured:
[1] = tested on: S. pneumoniae T4; test: Fitness outcome under antibiotic exposure (growth curve assay); format: cell-based, Streptococcus pneumoniae
Description: (§1) To test whether a gene-panel model can be trained that predicts fitness for many different conditions, a large RNA-Seq dataset was generated for the human pathogen Streptococcus pneumoniae. […] These include cell wall synthesis inhibitors (CWSI), DNA synthesis inhibitors (DSI), protein synthesis inhibitors (PSI) and RNA synthesis inhibitors ((RSI); FIG. 1A, Tables 1 & 2). Each strain was exposed to each antibiotic for 2 to 4 hours and cells were harvested for RNA-Seq at various time points. As T4 and 19F are susceptible to most antibiotics used, the transcriptional profiles in the presence of antibiotics mostly represent cases of low fitness (FIG. 1A, sensitive strain, 1xMICWT). In order to find patterns that differentiate fitness outcomes, adapted strains were generated with increased fitness in the presence of antibiotics by serial passaging wildtype T4 and 19F in the presence of increasing amounts of antibiotics. Four independent adapted populations for each strain were selected on individual antibiotics. These adapted strains could grow in the presence of antibiotic at 1.5xMIC of the wildtype strain, albeit with a small growth defect (FIGS. 6A-6E & 6F). In parallel, RNA-Seq was performed on S. pneumoniae strains D39 and T4 in a chemically defined medium, and media from which either uracil, Glycine or L-Valine was removed, which are essential for D39 but not T4. This enabled the potential identification of a common stress signature that is shared between antibiotic exposure and nutrient deprivation, and across multiple strains. Lastly, D39 was adapted to grow in the absence of each individual nutrient, after which RNA-Seq was repeated for adapted clones (Table 1 lists all 24 strains, 67 populations and 267 RNA-Seq experiments).
(§2) S. pneumoniae strain TIGR4 (T4; NC_003028.3) is a serotype 4 strain originally isolated from a patient^3,4, Taiwan-19F (19F; NC_012469.1) is a multi-drug resistant strain^5,6 and D39 (NC_008533) is a commonly used serotype 2 strain originally isolated from a patient about 90 years ago^7. Strain PG1 and PG19 were isolated from adults with pneumococcal bacteremia infection and included in the Pneumococcal Bacteremia Collection Nijmegen (PBCN)^8. All S. pneumoniae gene numbers refer to the T4 genome. Correspondence between homologous genes among S. pneumoniae strains and gene function annotations are described herewith. Escherichia coli strain AR538, Klebsiella pneumoniae strain AR497 and Salmonella enterica subsp Typhimurium strain AR635 were clinical isolates obtained from the Center of Disease Control (CDC). Staphylococcus aureus strain MN6 was kindly provided by George Sakoulas (Center of Immunity, Infection & Inflammation, UCSD School of Medicine). Unless otherwise specified, S. pneumoniae strains were cultivated in Todd Hewitt medium with 5% yeast extract (THY) with 5 μL/mL oxyrase (Oxyrase, Inc) or on sheep's blood agar plates (Northeastern Laboratories) at 37° C. with 5% CO2. A. baumannii, E. coll. K. pneumoniae, S. aureus and S. Typhimurium were cultured in Mueller Hinton broth II (Sigma) at 37° C. with 220 rpm constant shaking. Tn-Seq and RNA-Seq experiments of S. pneumoniae under nutrient-depletion and antibiotic conditions were performed in chemically defined medium (CDM)^9 and semi-defined minimal medium (SDMM)^10, respectively. RNA-Seq experiments for A. baumannii, S. Typhimurium, E. coll. K. pneumoniae, and S. aureus were performed in Mueller Hinton broth II. Single strain growth assays were performed at least three times using 96-well plates by taking OD600 measurements on a Tecan Infinite 200 PRO plate reader.

[2] = tested on: antibiotic-adapted S. pneumoniae T4 (aT4); test: as above; format: cell-based, Streptococcus pneumoniae
Description: as §1, §2
(§3) D39 was used as the parental strain in nutrient-depletion evolution experiments; T4 and 19F were used as parental strains in antibiotic evolution experiments. […] Four replicate populations were serial passaged in CDM or SDMM as controls to identify background adaptations in nutrient or antibiotic adaptation experiments, respectively. […]

[3] = tested on: antibiotic-adapted S. pneumoniae 19F (a19F); test: as above; format: cell-based, Streptococcus pneumoniae
Description: as §1, §2, §3

[4] = tested on: Escherichia coli AR538; test: Fitness outcome under ciprofloxacin (growth curve assay); format: cell-based; settings: E. coli AR538
Description: (§4) Since the single-timepoint variant of entropy is the most practical (in terms of data collection and cost), the generalizability of entropy to previously unseen species was evaluated using this model. RNA-Seq was performed at 120 min post exposure to 1 μg/mL of CIP. […] Single-timepoint entropy was computed for the transcriptome of each of these previously unseen isolates.
as §2

[5] = tested on: Staphylococcus aureus MN6; test: as above; format: cell-based; settings: S. aureus MN6
Description: as §4, §2

[6] = tested on: Salmonella Typhimurium AR635; test: as above; format: cell-based; settings: S. Typhimurium AR635, 1 μg/mL ciprofloxacin
Description: as §4, §2

[7] = tested on: Klebsiella pneumoniae AR497; test: as above; format: cell-based; settings: K. pneumoniae AR497
Description: as §4, §2

[8] = tested on: S. pneumoniae serotype 23F; test: as above; format: cell-based, Streptococcus pneumoniae; settings: S. pneumoniae 23F
Description: as §4, §2

[9] = tested on: S. pneumoniae serotype 1; test: as above; format: cell-based, Streptococcus pneumoniae; settings: 1 μg/mL ciprofloxacin
Description: as §4, §2

[10] = tested on: A. baumannii ATCC 17978; test: Ciprofloxacin MIC determination by growth curves; format: cell-based; settings: Acinetobacter baumannii, ATCC17978, read-out: measured MIC
Description: (§5) Each concentration was tested in triplicate. Growth was monitored on a Tecan Infinite 200 PRO plate reader at 37° C. for 16 hours. MIC is determined as the lowest concentration that abolishes bacterial growth (FIGS. 6A-6H).

[11] = tested on: A. baumannii LAC-4; test: Ciprofloxacin MIC determination by growth curves; format: cell-based; settings: Acinetobacter baumannii, LAC4, read-out: measured MIC
Description: as §5

[12] = tested on: A. baumannii ATCC 17978; test: Single time-point entropy (RNA-Seq) with linear regression MIC prediction; format: cell-based; settings: Acinetobacter baumannii, ATCC17978, 2 h; read-out: predicted MIC (linear regression model on entropy)
[13] = 1 μg/mL ciprofloxacin, listed as CIP
[14] = 1 μg/mL ciprofloxacin, listed as ciprofloxacin
[15] = strain-specific 1xMIC of ciprofloxacin

O=C(O)c1cn(C2CC2)c2cc(N3CCNCC3)c(F)cc2c1=O [Ciprofloxacin, ciprofloxacin] was tested, and the Fitness ([1]; S. pneumoniae T4 wild-type, 1xMIC antibiotic, growth curves) was “Low”, the “Survive (real survival outcome)” value ([1]; strain T4, Adapted FALSE, Concentration L (low)) was “FALSE” and the Fitness ([2]; aT4, T4 adapted to the respective antibiotic, 1xMIC and 1.5-2xMIC, growth curves) was “High”. For the same compound, the “Survive (real survival outcome)” value ([2]; strain T4, Adapted TRUE, Concentration L (low)) was “TRUE”, the Fitness ([3]; a19F, 19F adapted to the respective antibiotic, 1xMIC and 1.5-2xMIC, growth curves) was “High” and the “Survive (real survival outcome)” value ([3]; strain 19F, Adapted TRUE, Concentration L (low)) was “TRUE”. The Fitness ([4]; 1 μg/mL ciprofloxacin) was “High”, the Fitness [4, 13] was “insensitive” and the Fitness [4, 14] was “high fitness”. For the same compound, the Fitness [4, 15] was “Low,”, the Fitness ([5]; 1 μg/mL ciprofloxacin) was “High” and the Fitness [5, 13] was “insensitive”. For the same compound, the Fitness [5, 15] was “Low,”, the Fitness [6] was “Low” and the Fitness ([6]; listed as ciprofloxacin) was “low fitness”. The Fitness ([7]; 1 μg/mL ciprofloxacin) was “High”, the Fitness [7, 13] was “insensitive” and the Fitness [7, 14] was “high fitness”. For the same compound, the Fitness [7, 15] was “Low,”, the Fitness ([8]; 1 μg/mL ciprofloxacin) was “High” and the Fitness [8, 13] was “insensitive”. For the same compound, the Fitness [8, 14] was “high fitness”, the Fitness [8, 15] was “Low,” and the Fitness [9] was “Low”. For the same compound, the Fitness ([9]; listed as ciprofloxacin) was “low fitness”, the MIC [10] was 0.07 µg/mL (≈ 0.211 µM) and the MIC [11] was 8.5 µg/mL (≈ 25.7 µM). The MIC [12] was 0.04 µg/mL (≈ 0.121 µM).
